The values below come from patent EP4772505A1, “COMPOUND FOR DEGRADING ANDROGEN RECEPTOR AND MEDICAL USE THEREOF” (Ubix Therapeutics, Inc., priority 2023, dated 2025).

The experiment addresses T1, Androgen Receptor (AR) (Homo sapiens, UniProt P10275).
T1 sequence (P10275 1-920): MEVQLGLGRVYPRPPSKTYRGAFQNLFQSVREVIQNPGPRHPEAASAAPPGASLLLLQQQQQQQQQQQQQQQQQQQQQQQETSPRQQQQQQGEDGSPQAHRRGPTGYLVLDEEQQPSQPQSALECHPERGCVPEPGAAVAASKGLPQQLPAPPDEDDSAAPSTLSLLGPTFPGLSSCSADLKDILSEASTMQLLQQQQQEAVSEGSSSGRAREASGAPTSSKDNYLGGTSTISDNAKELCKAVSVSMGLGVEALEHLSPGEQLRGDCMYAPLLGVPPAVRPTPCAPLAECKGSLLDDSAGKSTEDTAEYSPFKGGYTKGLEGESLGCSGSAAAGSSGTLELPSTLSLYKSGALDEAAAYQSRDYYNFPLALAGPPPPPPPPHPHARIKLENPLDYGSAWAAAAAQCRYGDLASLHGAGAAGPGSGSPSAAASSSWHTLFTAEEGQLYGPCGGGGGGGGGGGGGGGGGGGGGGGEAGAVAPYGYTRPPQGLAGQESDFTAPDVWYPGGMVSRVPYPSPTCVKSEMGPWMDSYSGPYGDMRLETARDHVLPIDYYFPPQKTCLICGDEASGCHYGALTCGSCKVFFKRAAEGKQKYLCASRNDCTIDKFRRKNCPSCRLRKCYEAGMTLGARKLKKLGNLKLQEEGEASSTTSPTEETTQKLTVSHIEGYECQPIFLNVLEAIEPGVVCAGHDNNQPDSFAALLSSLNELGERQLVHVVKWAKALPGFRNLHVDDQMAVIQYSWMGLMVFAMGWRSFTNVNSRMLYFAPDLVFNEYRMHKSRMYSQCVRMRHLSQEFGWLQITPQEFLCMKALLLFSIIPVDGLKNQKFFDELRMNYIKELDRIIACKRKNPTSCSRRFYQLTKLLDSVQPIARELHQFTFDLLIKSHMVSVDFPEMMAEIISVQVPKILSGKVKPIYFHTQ
Description: Measurement of AR protein degradation in VCaP cells by Western blotting. The note with it: read-out: AR degradation in VCaP cells (%). It counts as cell-based. Further details: endogenous in cells; host or cells: VCaP. On the procedure:
The amount of AR protein present in LNCaP or VCaP cells was measured after treating them with the synthesized compound. The amount of AR protein was measured using Western blotting. The protocol for the experiments using LNCaP or VCaP cells was as follows.
[Culture] LNCaP cells were resuspended in RPMI1640 medium + HEPES (Hyclone, SH30255.01), 10% FBS (Hyclone, SV30207.02), and 1% Penicillin-streptomycin (Welgene, LS 202-02). 3 x 10^5 cells/mL were seeded in 12-well plates (1 mL per well) and cultured for 3 days. VCaP cells were resuspended in IMDM MEDIUM (Hyclone, SH30228.01), 20% FBS (Hyclone, SV30207.02), and 1% Penicillin-streptomycin (Welgene, LS 202-02), seeded at 9 x 10^5/mL in 1 mL per 12-well plate, and cultured for 3 days.
[Compound Treatment] 10 µL of 100x stock (e.g., 0.1, 1, 10 µM) compound solution at the final compound treatment concentration (e.g., 0.001, 0.01, 0.1 µM) was added to each well in 1 mL media, and cells were harvested after 20 hours. For DC50 measurement, 100x stock (0.01, 0.1, 1, 10, 100, 1000 µM) compound solutions at the final compound treatment concentration (0.0001, 0.001, 0.01, 0.1, 1, 10 µM) were used.
[Cell lysis] The cell pellet was suspended using 1% SDS lysis buffer (50 mM Tris, 1 mM EDTA, 1% SDS, pH 8.0, 0.5 mM PMSF, 1x Protease/Phosphatase inhibitor Cocktail (Cell Signaling Technology, 5872S)), and sonication (70% AMP, 10 cycles (30 sec ON/59 sec OFF)) was performed. After centrifugation at 4°C and 20,000 g for 20 minutes, the cell lysate was obtained and transferred to a new tube.
[Protein Quantification] A BCA protein assay (SMART™ BCA Protein Assay Kit, iNtRON Biotechnology, 21071) was performed using a 96-well microplate. 5 µL of cell lysate and 5 µL of 1% SDS lysis buffer were added to each well of the 96-well plate, followed by an additional 200 µL of BCA reagent (Reagent A: Reagent B = 50:1). The wells were incubated at 37°C for 30 minutes and cooled to room temperature for 10 minutes. After shaking for 10 seconds, the absorbance was measured at a wavelength of 562 nm. The unknown protein concentration was determined using a BSA standard curve (0, 0.125, 0.25, 0.5, 1, 2 mg/mL). Western blotting samples were prepared by mixing cell lysate, 1% SDS lysis buffer, 4x NuPAGE™ LDS Sample buffer (Invitrogen, NP0008), and 10X NuPAGE™ Sample Reducing Agent (Invitrogen, NP0009) and boiling at 70°C for 10 minutes.
[Electrophoresis] 10 µg of protein sample was loaded into each well of a NuPAGE™ 4 to 12%, Bis-Tris, 1.0 mm Mini Protein Gel, 15-well, 17-well, or 26-well (Invitrogen, NP0323BOX, NP0329BOX, or WG1403BOX) and electrophoresed for 40 minutes using NuPAGE™MES SDS Running Buffer (Invitrogen, NP0002) at 200 V (constant V).
[Transfer] Transfer was performed for 15 or 18 minutes using the electrophoresed gel and the Trans-Blot® Turbo™ Transfer Starter System (Bio-RAD, #17001918, Mini Nitrocellulose) at 1.3 A (constant A) and 25 V (limit V). To confirm protein transfer, 15 mL of Ponceau S solution (Sigma, P7170-1L) was used to stain for 1 minute, and then washed to check the degree of transfer.
[Blocking] The membrane for AR and GAPDH detection was blocked with 5% skim milk/0.2% TBST (Skim milk: BD, 232100/ 20X TBS: Biosesang, TR2008-100-00/ 10% Tween 20 Solution: Bio-RAD, #161-0781) for 45 minutes.
[Antibodies and Detection] Primary AR antibody (Androgen Receptor: CST, 5153S) was mixed with 5% skim milk/0.2% TBST at a ratio of 1:1,000 and reacted at room temperature for 3 hours or at 4°C overnight. Primary GAPDH antibody (CST, 2118S) was mixed with 5% skim milk/0.2% TBST at a ratio of 1:2,000 and reacted at room temperature for 3 hours or at 4°C overnight. Afterwards, TBST (0.2% Tween 20) was used for washing three times every 5 minutes. Secondary antibody to AR antibody, Anti-rabbit IgG, HRP-linked Antibody (CST, 7074S), was mixed with 5% skim milk/0.2% TBST at a ratio of 1:5,000 and reacted at room temperature for 45 minutes. […]

Read-outs that look alike come from different tables or passages of the source.

`COc1cc(N2CCC(C(=O)Nc3ccc(OC4CCN(CC5CCN(c6ccc(NC7CCC(=O)NC7=O)cc6F)CC5)CC4)nn3)CC2)ccc1C#N` (stereo not shown) [Example 16, 1-(4-cyano-3-methoxyphenyl)-N-(6-((1-((1-(4-((2,6-dioxopiperidin-3-yl)amino)-2-fluorophenyl)piperidin-4-yl)methyl)piperidin-4-yl)oxy)pyridazin-3-yl)piperidine-4-carboxamide]: the Dmax at 0.01 µM (10 nM compound, 20 hours, VCaP cells) was 99%. In addition, the Dmax at 0.1 µM (100 nM compound, 20 hours, VCaP cells) turned out to be 100%.
On to `N#Cc1ccc(N2CCC(C(=O)Nc3ccc(OC4CCN(CC5CCN(c6ccc(NC7CCC(=O)NC7=O)cc6Cl)CC5)CC4)cn3)CC2)cc1C(F)(F)F` (stereo not shown) [Example 17, N-(5-((1-((1-(2-chloro-4-((2,6-dioxopiperidin-3-yl)amino)phenyl)piperidin-4-yl)methyl)piperidin-4-yl)oxy)pyridin-2-yl)-1-(4-cyano-3-(trifluoromethyl)phenyl)piperidine-4-carboxamide], for which, under “VCaP, 20 h”, the Dmax at 0.01 µM came out at 75% and the Dmax at 0.1 µM came to 97%.
